Active and inactive are the calls of the source.
How the values were obtained:
cells [1] = experiment: cells
[2] = microbe, parasite or virus in culture; assay type: functional; details: Mycobacterium tuberculosis
[3] = Luminescence-based cell-based high throughput dose response assay to identify activators of the DAF-12 from the parasite S. stercoralis (ssDAF-12).; assay type: functional
[4] = biological target: T1, Oxysterols receptor LXR-beta (Homo sapiens, UniProt P55055); assay type: functional, cell-based;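 also: Cell-based luminescence dose-response assay of agonist activity at LXR, run as a confirmatory counterscreen to a daf-12 agonist screen; HEK293 cells with Gal4-LXR fusion and GAL4-driven luciferase reporter; agonist potency from rising luciferase signal of a Gal4-LXR reporter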
T1 sequence (P55055 whole entry): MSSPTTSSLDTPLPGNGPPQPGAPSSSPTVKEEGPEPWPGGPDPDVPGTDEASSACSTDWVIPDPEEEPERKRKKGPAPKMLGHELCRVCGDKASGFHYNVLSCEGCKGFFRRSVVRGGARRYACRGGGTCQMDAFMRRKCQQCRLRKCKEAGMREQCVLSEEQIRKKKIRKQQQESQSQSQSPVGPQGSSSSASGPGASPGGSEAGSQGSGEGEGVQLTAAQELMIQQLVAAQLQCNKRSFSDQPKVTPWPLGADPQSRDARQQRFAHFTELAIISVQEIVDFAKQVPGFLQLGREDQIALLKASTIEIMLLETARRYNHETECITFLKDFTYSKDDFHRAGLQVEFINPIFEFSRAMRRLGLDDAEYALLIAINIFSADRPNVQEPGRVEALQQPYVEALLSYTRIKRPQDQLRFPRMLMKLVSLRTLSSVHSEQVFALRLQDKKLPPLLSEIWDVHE

[5] = NIH3T3 cell viability loss – ATP luminescence, mouse fibroblasts, counter-screen, dose response (AID 2010); assay type: functional, cell-based;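 also: cells exposed to compound for about 90 hours before reading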
[6] = Trypanosoma cruzi growth suppression in host cells – NIH3T3 host cells, beta-gal luminescence, confirmation (AID 2044); assay type: functional, cell-based;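 also: intracellular parasites grown in NIH/3T3 mouse fibroblasts as host cells; luminescent beta-galactosidase reporter signal from transgenic T. cruzi replicating inside host cells; inhibitors lower the luminescence signal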
cells [7] = experiment: cells; remark: listed apart in the source
[8] = inhibition of ADAM10 peptide cleavage – biochemical, FRET peptide substrate, recombinant human ADAM10, selectivity assay for ADAM17 exosite inhibitor project, dose response (AID 743259);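 also: ADAM10 enzyme cleaving a FRET peptide substrate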
[9] = biological target: Disintegrin and metalloproteinase domain-containing protein 17 (Homo sapiens, UniProt P78536); experiment: exosite inhibitors of ADAM17, dose response, biochemical (AID 743260)
[10] = biological target: T2, RNA-binding protein pos-1 (Caenorhabditis elegans, UniProt G5EF15); experiment: disruptors of C. elegans POS-1 RNA interaction – biochemical, fluorescence polarization, dose response (AID 1964);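 also: purified POS-1 fused to maltose binding protein made in E. coli; potency of compounds blocking POS-1 binding to fluorescent RNA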
T2 sequence (G5EF15 whole entry): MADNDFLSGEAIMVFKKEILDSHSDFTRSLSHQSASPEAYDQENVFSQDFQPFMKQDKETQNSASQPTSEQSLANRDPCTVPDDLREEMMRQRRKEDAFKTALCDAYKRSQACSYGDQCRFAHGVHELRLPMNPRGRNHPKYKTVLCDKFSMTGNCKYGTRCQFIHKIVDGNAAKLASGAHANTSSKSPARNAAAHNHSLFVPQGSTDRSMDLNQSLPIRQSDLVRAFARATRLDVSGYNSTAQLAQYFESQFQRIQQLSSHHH

Albumin = Albumin (Bos taurus, UniProt P02769); experiment: Counterscreen for inhibitors of T-cell receptor (TCR)-CD3 interaction: Fluorescence-based biochemical high throughput dose response assay to identify inhibitors of T-cell receptor (TCR)-CD3 interaction using a TAMRA-labeled BSA probe.; assay type: functional
[11] = biological target: T3, Zinc finger protein mex-5 (Caenorhabditis elegans, UniProt Q9XUB2); experiment: potency of MEX-5 RNA-binding blockers – biochemical, C. elegans, fluorescence polarization, dose response (AID 1960)
T3 sequence (Q9XUB2 whole entry): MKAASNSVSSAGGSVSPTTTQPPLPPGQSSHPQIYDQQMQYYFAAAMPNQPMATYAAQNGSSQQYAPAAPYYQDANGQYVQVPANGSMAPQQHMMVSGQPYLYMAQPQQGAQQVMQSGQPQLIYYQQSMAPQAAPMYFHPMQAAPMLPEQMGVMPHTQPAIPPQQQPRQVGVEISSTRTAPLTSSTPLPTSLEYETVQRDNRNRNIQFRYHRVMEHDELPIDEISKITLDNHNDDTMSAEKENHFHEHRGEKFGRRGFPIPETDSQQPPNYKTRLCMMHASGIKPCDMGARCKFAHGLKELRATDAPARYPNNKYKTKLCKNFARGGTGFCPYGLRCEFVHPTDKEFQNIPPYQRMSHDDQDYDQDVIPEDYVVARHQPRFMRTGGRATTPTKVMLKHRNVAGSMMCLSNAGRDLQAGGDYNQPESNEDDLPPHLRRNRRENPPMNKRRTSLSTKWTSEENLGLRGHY

[12] = biological target: Mitogen-activated protein kinase 10 (Homo sapiens, UniProt P53779); experiment: Dose response biochemical screening assay for inhibitors of c-Jun N-Terminal Kinase 3 (JNK3). [Related pubchem assays: 746 ]
[13] = reduced cellular PGC1a acetyl-lysine signal – cell-based, cherry-picked samples, dose response (AID 720514); assay type: functional;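 also: potency may reflect raised or lowered acetylation signal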
[14] = biological target: T4, Rac GTPase-activating protein 1 (Homo sapiens, UniProt Q9H0H5); experiment: blockers of MgcRacGAP-driven Rac1 GTP hydrolysis – biochemical, ADP Hunter fluorescence, primary and confirmatory, confirmation (AID 624330); assay type: functional
T4 sequence (Q9H0H5 whole entry): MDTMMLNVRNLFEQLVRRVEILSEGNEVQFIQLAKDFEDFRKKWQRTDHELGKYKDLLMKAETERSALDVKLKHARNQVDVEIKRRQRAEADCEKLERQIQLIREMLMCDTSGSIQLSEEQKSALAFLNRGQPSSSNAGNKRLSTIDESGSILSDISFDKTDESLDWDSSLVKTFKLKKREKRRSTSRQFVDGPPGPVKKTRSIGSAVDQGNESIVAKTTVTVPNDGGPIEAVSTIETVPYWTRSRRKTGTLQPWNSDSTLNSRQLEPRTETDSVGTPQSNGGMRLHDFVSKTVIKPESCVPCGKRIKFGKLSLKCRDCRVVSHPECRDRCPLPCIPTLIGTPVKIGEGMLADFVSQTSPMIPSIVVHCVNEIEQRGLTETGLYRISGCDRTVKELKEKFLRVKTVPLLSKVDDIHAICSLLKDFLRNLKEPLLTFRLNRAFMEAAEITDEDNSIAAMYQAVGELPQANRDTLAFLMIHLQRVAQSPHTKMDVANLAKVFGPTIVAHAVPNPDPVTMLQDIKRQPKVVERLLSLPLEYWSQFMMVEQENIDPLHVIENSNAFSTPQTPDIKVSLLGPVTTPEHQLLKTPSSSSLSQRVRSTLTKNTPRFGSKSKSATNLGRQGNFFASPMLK

[15] = general cell-killing toxicity readout – plate reader, dry powder samples, cytotoxicity control for PAX8 inhibitor project, dose response (AID 743021); assay type: functional, cell-based
Paired box protein Pax-8 = Paired box protein Pax-8 (Homo sapiens, UniProt Q06710); experiment: PAX8 transcriptional activity inhibition in RMG-I – RMG-I cells, luciferase, cherry-pick, dose response (AID 687027); assay type: functional, cell-based;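 also: luciferase reporter driven by Pax8 target thyroperoxidase promoter measured by SteadyGlo luminescence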
H9c2 = experiment: cells; assay type: functional, cell-based; details: Rattus norvegicus, H9c2, Myocardium;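 also: confirmatory concentration-response retest of ultra-high-throughput screening hits for modulation of myocardial damage; cell death induced by hydrogen peroxide oxidative stress; compound pretreatment for 60 min then peroxide exposure for 2 h; potency is for protecting the cells against peroxide damage rather than for killing them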
[16] = Luminescence Cell-Based Dose Response HTS to Identify Inhibitors of 5'UTR Stem-Loop Driven Prion Protein mRNA Translation in H4 Neuroglioblastoma Cells. [Related pubchem assays: 1827 (Project Summary), 1813 (Primary HTS)]; assay type: functional
[17] = alpha-synuclein stem-loop luciferase translation blockers – H4 neuroglioma cells, luminescence, confirmation (AID 1988); assay type: functional, cell-based
[18] = toxicity to human HepG2 hepatoma cells – cell-based, plate reader, dry powder samples, cytotoxicity control, dose response (AID 1159569); assay type: functional;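 also: inhibitor potency with signal falling toward the positive control level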
[19] = Dd2 malaria parasite growth inhibition potency – SYBR Green, dry powder samples, dose response (AID 1159566); assay type: functional, cell-based;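 also: potency for growth inhibition with lower SYBR green DNA signal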
[20] = growth inhibition of PfATP4-mutant resistant parasites – NITD609-resistant line, SYBR Green, dry powder, dose response (AID 1159571); assay type: functional, cell-based;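 also: parasites synchronized at ring stage by sorbitol before testing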
[21] = growth inhibition of yeast DHODH-expressing 3D7 parasites – SYBR Green, dry powder samples, dose response (AID 1159570); assay type: functional, cell-based;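 also: parasite growth measured after 72 hours of compound exposure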
[22] = P. falciparum Dd2 growth inhibitors, dose response, SYBR Green, cherry-picked samples (AID 1159567); assay type: functional, cell-based
[23] = toxicity to human hepatoma HepG2 cells – cell-based, cherry-picked samples, cytotoxicity control, dose response (AID 1159577); assay type: functional

Sequence of Disintegrin and metalloproteinase domain-containing protein 17 (P78536 whole entry, the tested form may be a part): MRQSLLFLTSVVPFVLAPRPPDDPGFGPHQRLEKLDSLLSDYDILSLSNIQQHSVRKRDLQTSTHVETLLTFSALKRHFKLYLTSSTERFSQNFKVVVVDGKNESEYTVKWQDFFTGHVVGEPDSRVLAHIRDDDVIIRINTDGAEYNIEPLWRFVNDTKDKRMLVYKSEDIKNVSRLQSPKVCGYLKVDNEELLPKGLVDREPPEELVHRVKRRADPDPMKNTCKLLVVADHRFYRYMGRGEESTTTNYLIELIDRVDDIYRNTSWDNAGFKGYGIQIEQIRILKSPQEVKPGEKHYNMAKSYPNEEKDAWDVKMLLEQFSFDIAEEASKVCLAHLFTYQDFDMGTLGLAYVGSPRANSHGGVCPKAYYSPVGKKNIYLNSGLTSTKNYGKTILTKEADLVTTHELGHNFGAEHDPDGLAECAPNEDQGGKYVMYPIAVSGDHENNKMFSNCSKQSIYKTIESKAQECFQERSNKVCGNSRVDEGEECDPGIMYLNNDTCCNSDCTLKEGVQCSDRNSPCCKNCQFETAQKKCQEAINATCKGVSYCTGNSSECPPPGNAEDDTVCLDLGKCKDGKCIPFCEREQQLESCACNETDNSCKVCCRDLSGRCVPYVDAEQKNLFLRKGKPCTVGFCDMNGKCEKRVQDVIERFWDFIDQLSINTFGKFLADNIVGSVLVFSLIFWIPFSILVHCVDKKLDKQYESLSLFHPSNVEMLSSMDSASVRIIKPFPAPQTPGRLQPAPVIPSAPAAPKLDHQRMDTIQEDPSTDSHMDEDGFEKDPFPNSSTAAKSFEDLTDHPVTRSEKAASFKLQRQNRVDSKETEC
Sequence of Albumin (P02769 whole entry): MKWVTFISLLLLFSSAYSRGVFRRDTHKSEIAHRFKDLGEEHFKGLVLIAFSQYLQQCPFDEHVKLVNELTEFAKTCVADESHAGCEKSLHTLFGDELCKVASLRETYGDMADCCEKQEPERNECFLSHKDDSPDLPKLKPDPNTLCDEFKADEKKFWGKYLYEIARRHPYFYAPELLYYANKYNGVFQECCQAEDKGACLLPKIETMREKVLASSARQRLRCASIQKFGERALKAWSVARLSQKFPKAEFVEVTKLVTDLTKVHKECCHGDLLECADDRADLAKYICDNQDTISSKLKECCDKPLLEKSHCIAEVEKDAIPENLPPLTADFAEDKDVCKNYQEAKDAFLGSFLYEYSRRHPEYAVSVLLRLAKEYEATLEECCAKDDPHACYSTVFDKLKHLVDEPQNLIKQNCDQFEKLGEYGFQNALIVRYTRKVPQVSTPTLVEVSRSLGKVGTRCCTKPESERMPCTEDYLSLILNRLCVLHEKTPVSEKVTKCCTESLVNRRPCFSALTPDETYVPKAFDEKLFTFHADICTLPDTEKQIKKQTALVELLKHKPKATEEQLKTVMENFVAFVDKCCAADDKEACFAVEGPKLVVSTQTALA
Sequence of Mitogen-activated protein kinase 10 (P53779 whole entry): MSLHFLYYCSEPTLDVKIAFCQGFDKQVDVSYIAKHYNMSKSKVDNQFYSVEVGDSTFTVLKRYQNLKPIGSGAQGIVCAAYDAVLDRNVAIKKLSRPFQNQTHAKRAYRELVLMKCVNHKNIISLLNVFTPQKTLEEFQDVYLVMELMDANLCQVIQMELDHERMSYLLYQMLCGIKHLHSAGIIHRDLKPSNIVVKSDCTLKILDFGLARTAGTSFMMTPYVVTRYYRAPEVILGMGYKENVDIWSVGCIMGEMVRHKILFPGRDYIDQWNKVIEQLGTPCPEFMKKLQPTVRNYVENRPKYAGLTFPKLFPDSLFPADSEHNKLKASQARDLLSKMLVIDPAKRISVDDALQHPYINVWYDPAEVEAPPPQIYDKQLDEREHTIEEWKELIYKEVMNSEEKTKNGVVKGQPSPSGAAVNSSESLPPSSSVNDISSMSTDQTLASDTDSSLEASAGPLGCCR
Sequence of Paired box protein Pax-8 (Q06710 whole entry): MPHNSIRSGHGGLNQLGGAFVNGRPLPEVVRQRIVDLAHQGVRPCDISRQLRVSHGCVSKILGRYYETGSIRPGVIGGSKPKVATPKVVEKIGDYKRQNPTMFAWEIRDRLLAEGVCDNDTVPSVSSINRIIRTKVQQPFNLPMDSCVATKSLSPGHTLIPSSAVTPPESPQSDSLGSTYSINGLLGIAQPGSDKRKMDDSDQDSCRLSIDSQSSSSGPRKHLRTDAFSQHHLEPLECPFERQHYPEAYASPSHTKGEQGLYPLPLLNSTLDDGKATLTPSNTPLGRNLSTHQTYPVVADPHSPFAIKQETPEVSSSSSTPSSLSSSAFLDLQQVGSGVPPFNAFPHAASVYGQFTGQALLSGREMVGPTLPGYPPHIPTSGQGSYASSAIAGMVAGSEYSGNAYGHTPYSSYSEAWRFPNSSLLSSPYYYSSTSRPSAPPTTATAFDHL

In the case of `CCc1ccc(-n2nc3cc(C)c(N)cc3n2)cc1`, the EC50 (cells [1]) is reported as > 67.5 µM (inactive), the CC50 [2] is reported as > 40 µM (active) and the IC50 [3] is reported as > 67.5 µM (inactive). For the same molecule, the EC50 [4] was > 67.5 µM (inactive).
In the case of `CC1(c2ccccc2)CC(C)(C)N(C(=O)c2cc([N+](=O)[O-])cc([N+](=O)[O-])c2)c2ccccc21` (stereo not drawn), the EC50 [5] is reported as 5.58 µM (active), the EC50 [6] is reported as < 0.1 µM (active) and the EC50 (cells [7]) is reported as 0.214 µM (active).
For `O=C(NC(=S)Nc1ccc2c(c1)OCCO2)c1cccc2ccccc12`, the IC50 [8] was > 69.5 µM (inactive) and the IC50 [9] was > 69.5 µM (inactive).
In the case of `O=C(NNC(=O)c1cc(Cl)ccc1O)c1cccc(S(=O)(=O)N2CCOCC2)c1`, the EC50 [10] is reported as 18.7 µM (inconclusive), the IC50 (Albumin) is reported as > 94.1 µM (inactive) and the EC50 [11] is reported as 11.6 µM (active).
For `COc1cccc2c(O)c(C/C=C(/C)Cl)c(C)nc12`, the IC50 [12] was 75 µM (not active).
For `O=C1c2cccc(OCC(=O)N3CCCc4ccccc43)c2CCN1Cc1ccc(Br)cc1`, the IC50 [8] was > 69.5 µM (inactive) and the IC50 [9] was > 69.5 µM (inactive).
In the case of `COC(=O)c1nn(-c2ccccc2)ccc1=O`, the AC50 [13] is reported as 5.56 µM (active).
In the case of `Cc1ccc(NC(=O)COC(=O)/C(=C/c2cccs2)c2cccs2)cc1S(=O)(=O)N(C)C`, the IC50 [8] is reported as > 69.5 µM (inactive) and the IC50 [9] is reported as > 69.5 µM (inactive).
In the case of `Cc1ccc(O)c(-c2cc(C(=O)Nc3ccc(S(=O)(=O)Nc4nccc(C)n4)cc3)[nH]n2)c1`, the EC50 [10] is reported as 13.1 µM (inconclusive), the IC50 (Albumin) is reported as > 94.1 µM (inactive) and the EC50 [11] is reported as 6.59 µM (active).
With `Cc1cc(Cl)c(OCCOCCN2CCN(C)CC2)c(Br)c1` the EC50 [5] was > 60 µM (not active), the EC50 [6] was < 0.1 µM (active) and the IC50 [14] was 63.9 µM (active). The EC50 (cells [7]) was 0.294 µM (active).
In the case of `Cc1ccc(-c2nnc(-c3cccc4ccccc34)o2)cc1`, the EC50 (cells [1]) is reported as > 67.5 µM (inactive) and the EC50 [4] is reported as > 67.5 µM (inactive).
With `CCC(c1nnnn1Cc1ccccc1)N1CCC(n2c(O)nc3ccccc32)CC1` (stereo not drawn) the AC50 [15] was 41.4 µM (active), the AC50 (Paired box protein Pax-8) was 3.8 µM (active) and the IC50 (H9c2) was > 79 µM (inactive).
In the case of `C[C@@H]1CN([C@@H](C)CO)C(=O)c2c(c3ccccc3n2C)-c2ccccc2CO[C@H]1CN(C)S(=O)(=O)c1ccsc1`, the AC50 [13] is reported as 29.2 µM (active).
For `CC(=O)Nc1sc2c(c1-c1nc3ccccc3s1)CCCN(C(C)C)C2`, the IC50 [3] was > 67.5 µM (inactive).
In the case of `Cc1ccc2c(c1)s/c(=N/C(=O)c1cccs1)n2C`, the EC50 (cells [1]) is reported as > 67.6 µM (inactive), the EC50 [16] is reported as 4.15 µM (active) and the EC50 [4] is reported as > 67.6 µM (inactive). For the same molecule, the EC50 [17] was 4.79 µM (active).
For `C[C@@H]1CN([C@@H](C)CO)S(=O)(=O)c2ccc(/C=C/c3ccccc3)cc2O[C@H]1CN(C)C(=O)c1ccc2c(c1)OCO2`, the AC50 [18] was 87.3 µM (active), the AC50 [19] was 2.09 µM (active) and the AC50 [20] was 1.18 µM (active). The AC50 [21] was 2.96 µM (active) and the AC50 [22] was 2.43 µM (active).
With `COc1ccc2c3c(n(C)c2c1)[C@H](CO)NCC31CCN(CC2CCCC2)CC1` the AC50 [18] was 46.3 µM (active), the AC50 [19] was 0.481 µM (active) and the AC50 [20] was 0.425 µM (active). For the same molecule, the AC50 [21] was 0.449 µM (active), the AC50 [23] was 35.5 µM (active) and the AC50 [22] was 0.738 µM (active).
For `COc1ccccc1S(=O)(=O)N(C)C[C@@H]1Oc2cc(C#CCC3CCCC3)ccc2S(=O)(=O)N([C@H](C)CO)C[C@H]1C`, the AC50 [18] was 23.8 µM (active), the AC50 [19] was 0.146 µM (active) and the AC50 [20] was 0.104 µM (active). For the same molecule, the AC50 [21] was 0.227 µM (active), the AC50 [23] was 28.6 µM (active) and the AC50 [22] was 0.309 µM (active).
